Source: patent publication US8673371B2, “Composition for treating vitiligo or canities comprising extract from sophora japonica as active ingredient” (Keimyung University Industry Academic Cooperation Foundation, priority 2010, dated 2014)

Experiments:
[1] = Electron donating ability (Blois' method, DPPH)
Experimental: Electron donating ability was measured according to the Blois' method (Blois 1958). Freeze-dried powder of Sophora japonica methanol extract was dissolved in DMSO at concentrations of 100, 500 and 1,000 μg/mL. After taking 1 mL to a test tube and adding 4 mL of 4×10^−4 M DPPH solution, followed by agitating in a water bath of 60° C. for 10 seconds and allowing to stand at room temperature for 20 minutes, absorbance was measured at 525 nm. For the non-extract-treated group, 1 mL of methanol was added instead of the sample. Electron donating ability was calculated from the difference in absorbance relative to the non-treated group. The synthetic antioxidant BHT was used as positive control.

Melan-a cells [2] = experiment: Melanin producing ability; format: cell-based, C57BL/6 mouse; conditions: 12.5 μg/mL
Experimental: Then, after treating again with the Sophora japonica methanol extract, the cells were further cultured for 72 hours. After dissolving melanin with 1 N NaOH solution, absorbance was measured at 490 nm. IBMX was used as positive control.

tyrosinase [3] = experiment: Intracellular tyrosinase activity; format: cell-based, C57BL/6 mouse; conditions: 12.5 μg/mL, Melan-a cells
Experimental: 4-5. […] Then, after removing the medium and washing with PBS, the cells were lysed by adding 200 μL of 1% Triton X-100 solution. The lysed cells were transferred to an e-tube and vortexed on ice with 10-minute intervals. After about 1 hour, centrifuge was carried out at 4° C. and 14,000 rpm for 20 minutes. The supernatant was subjected to tyrosinase activity measurement. Absorbance was measured using a protein assay solution (Bio-Rad, USA), and the protein quantity was calculated. Cell extract containing 40 μg of protein was mixed with the test substance to a total volume of 100 μL. After adding 100 μL of L-DOPA, followed by incubation in a 10% CO2 incubator at 37° C. for 60 minutes, absorbance was measured at 490 nm. IBMX was used as positive control.

tyrosinase [4] = target: T1, tyrosinase (Mus musculus, UniProt P11344); experiment: Activity of cell-extracted tyrosinase; format: biochemical, C57BL/6 mouse; conditions: 12.5 μg/mL, Melan-a cell extract
T1 construct: the cells were lysed by adding 200 μL of 1% Triton X-100 solution; endogenous in cells; host or cells: Melan-a cells (immortalized C57BL/6 mouse melanocytes)
T1 sequence (P11344 19-533): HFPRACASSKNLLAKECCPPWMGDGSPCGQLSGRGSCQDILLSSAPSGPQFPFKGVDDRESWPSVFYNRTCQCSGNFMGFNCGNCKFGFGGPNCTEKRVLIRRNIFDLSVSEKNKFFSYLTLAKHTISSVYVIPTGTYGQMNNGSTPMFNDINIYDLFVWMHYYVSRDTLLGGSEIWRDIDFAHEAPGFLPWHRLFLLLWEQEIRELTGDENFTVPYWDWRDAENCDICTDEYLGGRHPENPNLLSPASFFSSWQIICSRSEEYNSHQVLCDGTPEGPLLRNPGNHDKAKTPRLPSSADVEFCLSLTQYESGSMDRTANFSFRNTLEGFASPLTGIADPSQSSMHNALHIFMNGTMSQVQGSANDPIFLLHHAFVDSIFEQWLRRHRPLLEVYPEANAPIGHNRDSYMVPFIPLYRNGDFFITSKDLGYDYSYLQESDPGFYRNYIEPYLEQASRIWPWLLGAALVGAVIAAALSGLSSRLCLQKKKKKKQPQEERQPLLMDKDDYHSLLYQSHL
Experimental: After washing with PBS and lysing by adding 200 μL of 1% Triton X-100, the lysed cells were transferred to an e-tube and vortexed on ice with 10-minute intervals. After about 1 hour, centrifuge was carried out at 4° C. and 14,000 rpm for 20 minutes. 50 μL of the supernatant was mixed with 49 μL of 0.1 M phosphate buffer (pH 6.8) and 1 μL of Sophora japonica methanol extract at various concentrations (6.25, 12.5, 25 and 50 μg/mL). After allowing to stand for 1 hour, 100 μL of L-DOPA was added. Then, after incubation in a 10% CO2 incubator at 37° C. for 60 minutes, absorbance was measured at 490 nm. IBMX was used as positive control.

tyrosinase mRNA = experiment: RT-PCR, expression of tyrosinase mRNA; format: cell-based, C57BL/6 mouse; conditions: 12.5 μg/mL, Melan-a cells
Experimental: (§1) Total RNA was prepared using Trizol reagent (Invitrogen, Caylsbad, Calif.) according to the manufacturer's instructions. 5 μg of total RNA was subjected to reverse transcription with 8 μL of M-MLV RT 5× buffer, 3 μL of 10 mM dNTPs, 0.45 μL of 10,000 U RNase inhibitor, 0.3 μL of 50,000 U M-MLV reverse transcriptase (Promega, Madison, USA) and 1.5 μL of 50 pmol/μL oligo dT (Bioneer, Daejeon, Korea). Single-stranded cDNA was amplified by PCR in a reaction solution containing 4 μL of 5× green Go Taq flexi buffer, 0.4 μL of 10 mM dNTPs, 0.1 μL of 500 U Taq polymerase, 1.2 μL of 25 mM MgCl2 (Promega, Madison, USA) and 0.4 μL of 20 pmol/μL sense and antisense primers of tyrosinase, […] or β-actin. Sequences of the primers used in the PCR and expected PCR product size are shown in Table 1. β-actin was used as internal standard (51° C., 30 cycles), and test substances were tyrosinase (56° C., 28 cycles), TRP-1 (56° C., 28 cycles), TRP-2 (64° C., 28 cycles) and MITF-M (54° C., 30 cycles). The PCR product was analyzed by electrophoresis on 1.2% agarose gel.

TRP-1 mRNA = experiment: RT-PCR, expression of TRP-1 mRNA; format: cell-based, C57BL/6 mouse; conditions: 12.5 μg/mL, Melan-a cells, not significant
Experimental: as §1

TRP-2 mRNA = experiment: RT-PCR, expression of TRP-2 mRNA; format: cell-based, C57BL/6 mouse; conditions: 12.5 μg/mL, Melan-a cells
Experimental: as §1

MITF-M mRNA = experiment: RT-PCR, expression of MITF-M mRNA; format: cell-based, C57BL/6 mouse; conditions: 12.5 μg/mL, Melan-a cells
Experimental: as §1

Melan-a cells [5] = conditions: mouse, 48 h
Experimental: Melan-a cells, which are immortalized cells derived from C57BL/6 mouse, were cultured in a 37° C., 10% CO2 incubator using RPMI-1640 medium containing 10% fetal bovine serum (FBS) 1% penicillin/streptomycin (P/S) and 200 nM 12-O-tetradecanoylphorbol 13-acetate (TPA).
The MTT assay is a typical technique of measuring cell viability. Upon absorption into cells, 3-(4,5-Dimethylthiazol-2-yl)-2,5-diphenyltetrazolium bromide (MTT) is reduced by succinate dehydronase in mitochondria to formazan. Thus, accumulation of this substance in cells is a measure of mitochondrial activity or, in a broader sense, cell activity. Melan-a cells were stabilized in RPMI-1640 medium containing 10% FBS, 1% P/S and 200 nM TPA in a 10% CO2 incubator at 37° C. for 48 hours before carrying out experiment. The Melan-a cells were seeded on a 96 well plate (0.5×10^4 cells/well) and cultured in a 10% CO2 incubator at 37° C. for 24 hours. […] After dissolving the cells in a plate shaker for 15 minutes, absorbance was measured at 540 nm using an ELISA reader. Cell proliferation was calculated according to the following equation: Cell proliferation (%)=(Absorbance of extract-treated group/Absorbance of non-extract-treated group)×100.

Higher activity of cell-extracted tyrosinase compared with the control (tyrosinase [4])	Maximum permissible level (MPL) (Melan-a cells [5])	SMILES	Electron donating ability, concentration dependence ([1]; 100, 500 and 1,000 μg/mL)	Electron donating ability ([1]; at 1,000 μg/mL)	Higher melanin content compared with the control (Melan-a cells [2])	Higher intracellular tyrosinase activity compared with the control (tyrosinase [3])	Higher expression of tyrosinase mRNA compared with the control (tyrosinase mRNA)	Higher expression of TRP-1 mRNA compared with the control (TRP-1 mRNA)	Higher expression of TRP-2 mRNA compared with the control (TRP-2 mRNA)	Higher expression of MITF-M mRNA compared with the control (MITF-M mRNA)
–	–	Cc1cc(C(C)(C)C)c(O)c(C(C)(C)C)c1 [BHT, 2,6-di-tert-butylated hydroxytoluene]	positive (+) concentration-dependent relationship	85.0%	–	–	–	–	–	–
21.2%	12.5 µg/mL	CC(C)Cn1c(=O)n(C)c(=O)c2[nH]cnc21 [IBMX, 3-isobutyl-1-methylxanthine]	–	–	16.7%	22.2%	0.31%	2%	9%	74%
